Data from patent US7977049B2, “Methods and compositions for extending the life span and increasing the stress resistance of cells and organisms” (priority 2002, dated 2011).
Where two headings read alike, the source gives them in different places.

How the values were obtained:
[1] = system: yeast (PSY316AT and sir2::TRP1 strains)
Protocol: (§1) FIG. 9. […] A, Strains were assayed for rDNA stability by examining the rate of loss of an ADE2 marker integrated at the rDNA locus. […] More than 10,000 colonies were examined for each strain and each experiment was performed in triplicate. Average recombination frequencies (+/−s.d.) per cell division are shown. Relevant strains: W303-1A RDN1::ADE2 (W303AR5) and W303AR5 derivatives 2×SIR2 (YDS1572) and sir2::TRP1 (YDS878). […] C and D, Life spans were determined by scoring the number of daughter cells produced by each mother cell before cessation of cell division (68′,69′). Cells were pre-grown for a minimum of 48 h on complete glucose medium.
Replicative life span determination was performed by micromanipulation as described (25′). A minimum of 40 cells were examined per experiment and each experiment was performed at least twice independently. Statistical significance of life span differences was determined using the Wilcoxon rank sum test. Differences are stated to be significant when the confidence is higher than 95%.
Cells were grown for two days on fresh yeast YPD medium to ensure that they had fully recovered from conditions of calorie restriction prior to the assay. Daughter cells that emerged from previously unbudded mother cells were then micro-manipulated away and scored.

[2] = molecular target: T1, association of Sir2 with rDNA, HMR and sub-telomeric DNA (Saccharomyces cerevisiae, UniProt P06700); assay: Chromatin immunoprecipitation with α-Sir2 antibody; type: cell-based; settings: 5 mM nicotinamide
T1 construct: endogenous in cells; host or cells: S. cerevisiae W303AR5
Protocol: FIG. 12. […] PCR amplification of both input DNA from whole cell extracts and immunoprecipitated chromatin are shown. PCR was performed using primer pairs specific for the CUP1 gene (top panels), 5S rDNA (second panels), the HMR locus (third panels), or subtelomeric DNA 1.4 and 0.6 kb from telomeres (bottom panels).
Fluorescence Microscopy and Chomatin immunoprecipitation—GFP fluorescence was visualized in live cells grown to log phase in synthetic complete (SC) medium (1.67% yeast nitrogen base, 2% glucose, 40 mg/liter each of histidine, uridine, tryptophan, adenine and leucine). Images were captured using a Nikon Eclipse E600 microscope at a magnification of 1000× and analyzed with Scion Image software. PCR reactions were carried out in a 50 μl volume using a 1/5000 or a 1/12500 dilution of input DNA from precleared whole-cell extracts and a 1/50 dilution of immunoprecipitated DNA. PCR parameters were as follows. For CUP1 and 5S rDNA primer pairs, 26 cycles of PCR were performed with an annealing temperature of 55° C. For Tel 0.6, Tel 1.4 and HM primer pairs 32 cycles at an annealing temperature of 50° C. were used. PCR products were separated by gel electrophoresis on a 2.3% agarose gel and visualized by ethidium bromide staining.

silencing at telomeres = assay: Telomeric silencing assay (ADE2 marker at the telomere); type: cell-based, Saccharomyces cerevisiae; settings: 5 mM nicotinamide, limiting adenine
Protocol: Silencing of the MET15 marker is indicated by the accumulation of a brown pigment. Single dark brown colonies in RDN1::MET15 strains represent marker loss events. Relevant genotypes: met15Δ (JS209), MET15 (JS241), RDN1::MET15 (JS237), sir2::TRP1 (JS218), 2×SIR2 (YDS1583). […] Silencing of the ADE2 marker results in the accumulation of a red pigment. Relevant genotypes: (PSY316AT), W303-1 A ADE2 (YDS1596) and W303-1A ade2 (YDS 1595).
Cells were grown at 30° C. on YPD medium (1% yeast extract, 2% bactopeptone, 2% glucose w/v) unless otherwise stated. The extent of silencing at the ribosomal DNA locus was determined by growing RDN1::MET15 strains on Pb^2+-containing medium (0.3% peptone, 0.5% yeast extract, 4% glucose, 0.02% (w/v) ammonium acetate, 0.07% Pb(NO3)2 and 2% agar). […] Ribosomal DNA recombination frequencies were determined as previously described (44′).
To monitor telomeric silencing, we used a strain in which the ADE2 gene is integrated at the subtelomeric (Y′) region of the right arm of chromosome V (22′). On plates with limiting adenine, colonies have red/white sectors due to variegated expression of the ADE2 marker.

[3] = system: rDNA locus of yeast (W303AR5 strains); assay: Ribosomal DNA recombination (loss of ADE2 marker at the rDNA locus); type: cell-based, Saccharomyces cerevisiae; settings: 5 mM nicotinamide
Protocol: as §1

Sir2 = Sir2 protein levels in the presence of nicotinamide; type: cell-based, Saccharomyces cerevisiae; settings: nicotinamide 1-5 mM
[4] = system: silent mating type locus (HMR); assay: HMR::GFP reporter silencing (fluorescence microscopy and FACS); type: cell-based, Saccharomyces cerevisiae; settings: for GFP expression from HMR by FACS: asynchronous wild type cells, 5 mM compound
Protocol: FIG. 10. […] Cells were photographed live. […] Cells were analyzed by fluorescent activated cell sorting (FACS) to determine the extent of ADH-GFP expression. C, A MATa derivative of strain YDS970 (YDS1005) was deleted for HML and treated with 10 μg/ml alpha-factor for 3 hours. […] Cell cycle progression was monitored at each time point by FACS analysis of propidium iodide stained cells.
GFP fluorescence was quantified by fluorescence-activated cell sorting (FACS) using a FACSCalibur flow cytometer (Becton Dickinson, Calif.) as described (45′). For G1-arrest experiments, cells were treated with 10 μg/ml alpha factor for 3 hours. DNA content was determined by FACS analysis of fixed cells stained with propidium iodide (Sigma) as described (45′). Typically 20,000 cells were analyzed per sample. Data acquisition and analysis were performed using CELLQuest software (Becton Dickenson).

recombinant human SIRT1 = molecular target: T2, recombinant human SIRT1 (Homo sapiens, UniProt Q96EB6); assay: In vitro deacetylation assay (HDAC Fluorescent Activity Assay), SIRT1; type: biochemical
T2 sequence (Q96EB6 1-747): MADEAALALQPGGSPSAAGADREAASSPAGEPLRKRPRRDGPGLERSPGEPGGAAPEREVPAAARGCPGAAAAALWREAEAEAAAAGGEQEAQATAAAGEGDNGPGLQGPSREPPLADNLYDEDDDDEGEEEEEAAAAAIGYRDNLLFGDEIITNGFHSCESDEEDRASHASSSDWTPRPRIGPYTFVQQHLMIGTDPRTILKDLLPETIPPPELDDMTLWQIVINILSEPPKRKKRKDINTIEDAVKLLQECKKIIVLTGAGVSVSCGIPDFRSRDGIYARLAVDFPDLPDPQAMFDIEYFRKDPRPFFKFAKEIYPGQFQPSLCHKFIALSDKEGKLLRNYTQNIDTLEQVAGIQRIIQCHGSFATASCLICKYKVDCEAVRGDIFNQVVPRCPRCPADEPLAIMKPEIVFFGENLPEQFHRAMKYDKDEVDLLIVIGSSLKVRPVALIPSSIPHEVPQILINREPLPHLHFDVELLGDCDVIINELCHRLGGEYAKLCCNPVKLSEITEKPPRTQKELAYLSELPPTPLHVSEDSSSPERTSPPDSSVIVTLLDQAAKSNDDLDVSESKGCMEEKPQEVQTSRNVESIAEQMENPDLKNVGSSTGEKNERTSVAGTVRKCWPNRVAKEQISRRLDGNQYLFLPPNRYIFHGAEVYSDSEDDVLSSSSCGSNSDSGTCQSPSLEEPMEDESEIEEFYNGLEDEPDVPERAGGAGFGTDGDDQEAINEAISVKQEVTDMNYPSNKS
Protocol: (§2) FIG. 13. […] Reactions were terminated by the addition of developer and samples were analyzed by fluorometry (excitation set at 360 nm and emission at 460 nm). Experiments were performed in triplicate. Data is shown as a Lineweaver-Burk double reciprocal plot of arbitrary fluorescence units (AFUs) min^−1 versus NAD^+ (μM). B, Experiments were performed as in A, except that recombinant human SIRT1 was used and reactions were carried out at 37° C. […] Reactions were carried out at 37° C. for 30 minutes and fluorescence was measured as in A.
(§3) In vitro deacetylation assays—Recombinant GST tagged yeast Sir2p (gift of D. Moazed) and recombinant human SIRT1 (47′) were assayed for deacetylase activity using the HDAC Fluorescent Activity Assay/Drug Discovery Kit (AK-500, BIOMOL Research Laboratories). This assay system allows detection of a fluorescent signal upon deacetylation of a histone substrate when treated with developer. Fluorescence was measured on a fluorometric reader (Cytofluor II 400 series PerSeptive Biosystems) with excitation set at 360 nm and emission detection set at 460 nm. Reactions consisted of either 5 μg of GST-Sir2 or 2.5 μg of SIRT1, incubated with 250 μM acetylated histone substrate, 1 mM DTT and a range of NAD^+ concentrations as described, in 50 μl of assay buffer. […]

[5] = system: silencing at the rDNA locus (RDN1)
Protocol: Silencing of the MET15 marker is indicated by the accumulation of a brown pigment. Single dark brown colonies in RDN1::MET15 strains represent marker loss events. […] Silencing of the ADE2 marker results in the accumulation of a red pigment.
Cells were grown at 30° C. on YPD medium (1% yeast extract, 2% bactopeptone, 2% glucose w/v) unless otherwise stated. The extent of silencing at the ribosomal DNA locus was determined by growing RDN1::MET15 strains on Pb^2+-containing medium (0.3% peptone, 0.5% yeast extract, 4% glucose, 0.02% (w/v) ammonium acetate, 0.07% Pb(NO3)2 and 2% agar).
Strains with either an ADE2 or MET15 marker integrated at the rDNA locus (RDN1) were examined. Silencing of ADE2 results in the accumulation of a red pigment on plates with limiting adenine, whereas silencing of MET15 leads to production of a brown pigment on Pb^2+-containing medium. […] Strains with a single extra copy of SIR2 (2×SIR2) or lacking SIR2 (sir2::TRP1), were included as controls for increased silencing and lack of silencing, respectively.

[6] = system: silencing of mating type genes; assay: Mating type locus silencing assay; type: cell-based, Saccharomyces cerevisiae; settings: nicotinamide
[7] = molecular target: T3, Recombinant GST tagged yeast Sir2p (Saccharomyces cerevisiae, UniProt P06700); assay: In vitro deacetylation assay (HDAC Fluorescent Activity Assay), Sir2; type: biochemical; settings: 200-750 μM NAD+, 30° C.
T3 construct: gift of D. Moazed
Protocol: as §2, §3

T1 sequence (P06700 whole entry): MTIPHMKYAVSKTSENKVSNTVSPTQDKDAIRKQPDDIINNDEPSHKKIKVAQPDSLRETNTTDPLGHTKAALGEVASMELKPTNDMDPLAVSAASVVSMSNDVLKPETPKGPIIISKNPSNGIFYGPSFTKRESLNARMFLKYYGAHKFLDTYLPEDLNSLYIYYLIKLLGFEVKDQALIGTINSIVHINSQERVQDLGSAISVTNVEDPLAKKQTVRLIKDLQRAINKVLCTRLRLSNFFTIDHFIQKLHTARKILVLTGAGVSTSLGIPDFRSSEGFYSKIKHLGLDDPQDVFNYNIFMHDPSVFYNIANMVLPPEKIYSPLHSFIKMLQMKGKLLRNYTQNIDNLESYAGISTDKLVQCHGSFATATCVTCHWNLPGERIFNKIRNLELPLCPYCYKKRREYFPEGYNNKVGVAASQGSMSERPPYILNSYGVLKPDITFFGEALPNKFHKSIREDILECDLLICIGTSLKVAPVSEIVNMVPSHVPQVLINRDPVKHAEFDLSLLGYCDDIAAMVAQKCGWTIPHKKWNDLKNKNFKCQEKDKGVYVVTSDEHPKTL
T3 sequence (P06700 whole entry): as above

## NC(=O)c1cccnc1 [nicotinamide]
[1]; sir2::TRP1 (YDS1594), 5 mM nicotinamide
  Average life span, sir2 strain: 11.7
[1]; wild type (PSY316AT), 5 mM nicotinamide
  Average life span, wild type: 12.1
[2]
  ChIP: Sir2 association with 5S rDNA: did not alter the amount of PCR product
  ChIP: Sir2 association with HMR: no PCR product was obtained
[2]; 0.6 and 1.4 kb from telomere
  ChIP: Sir2 association with sub-telomeric DNA: equivalent to background
Silencing at telomeres
  telomeric silencing of ADE2 marker: complete loss of repression
[3]; sir2 strain
  rDNA recombination in the sir2 strain: did not further increase recombination
[3]; wild type and 2×SIR2 cells
  increase of the frequency of ADE2 marker loss at the rDNA: ~7 fold
Sir2
  Sir2 protein levels: unaltered
[4]; alpha factor arrested cells, 5 mM nicotinamide
  HMR silencing in G1-arrested cells by FACS: loss of silencing
[4]
  GFP expression from HMR by FACS: complete derepression
[4]; cycling cells, 5 mM nicotinamide, after 60 minutes
  GFP expression from HMR, live cells (microscopy): dramatic increase in the level of expression
Recombinant human SIRT1; varying amounts of nicotinamide and NAD+
  mode of inhibition of SIRT1 (Lineweaver-Burk plot): non-competitive
[5]; 5 mM nicotinamide
  silencing of MET15 marker at the rDNA locus: completely abolished
[5]; addition of nicotinamide
  Silencing of an ADE2 marker at the rDNA locus: similarly abolished
[6]
  silencing of mating type genes: completely abrogated silencing
[7]
  mode of inhibition of Sir2 deacetylation (Lineweaver-Burk plot): strong non-competitive inhibitor

## O=C(O)c1cccnc1 [nicotinic acid]
[1]; 5 or 50 mM nicotinic acid
  effect on replicative life span: no detrimental effect
[1]; sir2 strain, nicotinic acid (concentration not clear)
  Average life span, sir2 strain: 12.2
[1]; wild type, 5 mM nicotinic acid
  Average life span, wild type: 26
[1]; wild type, 50 mM nicotinic acid
  Average life span, wild type: 25
[4]
  GFP expression from HMR by FACS: no increase in GFP expression
Recombinant human SIRT1; 50 μM compound, 200 μM NAD+
  effect on the activity of SIRT1 in vitro: no effect
[5]; 5 mM nicotinic acid, each of the rDNA, telomeric and mating type silencing assays
  effect on Sir2-dependent silencing: no effect

## O=C(O)c1cccnc1C(=O)O [quinolinic acid]
[4]
  GFP expression from HMR by FACS: no increase in GFP expression
